Source: ChEMBL document CHEMBL1949579, “2-Arylbenzofuran, flavonoid, and tyrosinase inhibitory constituents of Morus yunnanensis” (J Nat Prod, 2012)

biological target: T1, Tyrosinase (Agaricus bisporus, UniProt O42713); experiment: Inhibition of mushroom tyrosinase assessed as oxidation of L-dopa by spectrophotometric analysis
T1 sequence (O42713 whole entry): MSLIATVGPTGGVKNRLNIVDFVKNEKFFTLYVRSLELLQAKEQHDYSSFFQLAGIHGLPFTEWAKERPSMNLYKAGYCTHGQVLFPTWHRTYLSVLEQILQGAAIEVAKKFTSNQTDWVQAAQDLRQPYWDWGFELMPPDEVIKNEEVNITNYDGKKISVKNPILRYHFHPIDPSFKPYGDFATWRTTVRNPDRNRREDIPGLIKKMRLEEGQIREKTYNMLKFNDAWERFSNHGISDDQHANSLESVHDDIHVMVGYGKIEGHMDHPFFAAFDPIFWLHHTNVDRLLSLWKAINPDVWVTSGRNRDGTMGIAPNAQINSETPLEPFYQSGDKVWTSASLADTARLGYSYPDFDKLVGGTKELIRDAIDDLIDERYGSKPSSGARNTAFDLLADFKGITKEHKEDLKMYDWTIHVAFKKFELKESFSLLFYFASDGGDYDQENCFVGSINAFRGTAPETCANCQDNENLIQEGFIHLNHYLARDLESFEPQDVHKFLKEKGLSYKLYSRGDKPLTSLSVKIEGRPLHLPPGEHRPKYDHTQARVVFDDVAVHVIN

| IC50 [µM] | SMILES |
| --- | --- |
| 0.15 | CC(C)=CCc1c(O)ccc2c1O[C@H](c1ccc(O)cc1O)CC2 [MORUSYUNNANSINS F] |
| 1.43 | COc1ccc2c(c1C/C=C(\C)CO)O[C@H](c1ccc(O)cc1O)CC2 [MORUSYUNNANSINS E] |
| 0.12 | COc1ccc2c(c1CCO)O[C@@H](c1ccc(O)cc1O)CC2 |

biological target: T2, Tyrosinase (Agaricus bisporus) (UniProt O42713); experiment: Inhibition of mushroom tyrosinase assessed as oxidation of L-dopa at 25 uM by spectrophotometric analysis
T2 sequence (whole entry): T1 sequence (O42713 whole entry)

| SMILES | inhibition [%] |
| --- | --- |
| CC(C)=CCc1c(O)ccc2c1O[C@H](c1ccc(O)cc1)CC2 | < 50 |
| COc1ccc([C@@H]2CCc3ccc(O)c(CC=C(C)C)c3O2)c(O)c1 | < 50 |

Further lines, results first:

| inhibition [%] | SMILES |
| --- | --- |
| < 50 | COc1ccc(CCC(c2ccc(O)cc2O)c2cc([C@@H]3CCc4ccc(OC)c(CC=C(C)C)c4O3)c(O)cc2O)c(O)c1CC=C(C)C (some centres not stated) |
| < 50 | COc1ccc(CCC(c2ccc(O)cc2O)c2cc([C@H]3CCc4ccc(OC)c(CC=C(C)C)c4O3)c(O)cc2O)c(O)c1CC=C(C)C (some centres not stated) |
